Measurements from patent US20220041582A1, “ISOXAZOLINE COMPOUNDS FOR CONTROLLING INVERTEBRATE PESTS” (FMC Corporation, priority 2018, published 2022).
Like-named read-outs stand apart in the source and are kept apart here.

Tests used:
Format in all cases: in vivo
[1] = system: cotton melon aphid (Aphis gossypii (Glover)); assay: Test F: control of cotton melon aphid through contact and/or systemic means; conditions: 144 h; for mortality at 10 ppm: 10 ppm spray
Description: (§1) Formulation and Spray Methodology for Tests A-H
(§2) Test compounds were formulated using a solution containing 10% acetone, 90% water and 300 ppm Activator 90® non-ionic surfactant (Loveland Products, Loveland, Colo., USA). The formulated compounds were applied in 1 mL of liquid through an atomizer nozzle positioned 1.27 cm (0.5 inches) above the top of each test unit. Test compounds were sprayed at the rates indicated, and each test was replicated three times.
[…] This was pre-infested with 30-40 insects on a piece of leaf according to the cut-leaf method, and the soil of the test unit was covered with a layer of sand.
Test compounds were formulated and sprayed at 250, 50 and 10 ppm. After spraying, the test units were maintained in a growth chamber for 6 days at 19° C. and 70% relative humidity. Each test unit was then visually assessed for insect mortality.

[2] = system: green peach aphid (Myzus persicae (Sulzer)); assay: Test E: control of green peach aphid through contact and/or systemic means; conditions: 144 h; for mortality at 50 ppm: 50 ppm spray
Description: as §1, §2
For evaluating control of green peach aphid (Myzus persicae (Sulzer)) through contact and/or systemic means, the test unit consisted of a small open container with a 12-15-day-old radish plant inside. This was pre-infested by placing on a leaf of the test plant 30-40 aphids on a piece of leaf excised from a culture plant (cut-leaf method). The aphids moved onto the test plant as the leaf piece desiccated. After pre-infestation, the soil of the test unit was covered with a layer of sand.
Test compounds were formulated and sprayed at 250, 50 and 10 ppm. After spraying of the formulated test compound, each test unit was allowed to dry for 1 hour and then a black, screened cap was placed on top. The test units were held for 6 days in a growth chamber at 19-21° C. and 50-70% relative humidity. Each test unit was then visually assessed for insect mortality.

[3] = system: sweetpotato whitefly (Bemisia tabaci (Gennadius)); assay: Test G: control of sweetpotato whitefly through contact and/or systemic means; conditions: 312 h
Description: as §1, §2
For evaluating control of the sweetpotato whitefly (Bemisia tabaci (Gennadius)) through contact and/or systemic means, the test unit consisted of a small open container with a 12-14-day-old cotton plant inside. Prior to the spray application, both cotyledons were removed from the plant, leaving one true leaf for the assay. Adult whiteflies were allowed to lay eggs on the plant and then were removed from the test unit. Cotton plants infested with at least 15 eggs were submitted to the test for spraying.
Test compounds were formulated and sprayed at 250, 50 and 10 ppm. After spraying, the test units were allowed to dry for 1 hour. The cylinders were then removed, and the units were taken to a growth chamber and held for 13 days at 28° C. and 50-70% relative humidity. Each test unit was then visually assessed for insect mortality.

[4] = system: Western Flower Thrips (Frankliniellla occidentalis (Pergande)); assay: Test H: control of Western Flower Thrips through contact and/or systemic means; conditions: 50 ppm spray; 6 days; 30% or less plant damage and/or 100% mortality
Description: as §1, §2
For evaluating control of the Western Flower Thrips (Frankliniellla occidentalis (Pergande)) through contact and/or systemic means, the test unit consisted of a small open container with a 8-9-day-old Soleil bean plant inside.
Test compounds were formulated and sprayed at 250, 50, 10 and 2 ppm. After spraying, the test units were allowed to dry for 1 hour, and then ˜60 thrips (adults and nymphs) were added to each unit. A black, screened cap was placed on top, and the test units were held for 6 days at 25° C. and 45-55% relative humidity. Each test unit was then visually assessed for plant damage and insect mortality.

[5] = system: corn planthopper (Peregrinus maidis (Ashmead)); assay: Test C: control of corn planthopper through contact and/or systemic means; conditions: Peregrinus maidis, 144 h; 50 ppm spray; 6 days; read-out: mortality
Description: as §1, §2
For evaluating control of corn planthopper (Peregrinus maidis (Ashmead)) through contact and/or systemic means, the test unit consisted of a small open container with a 3-4-day-old corn (maize) plant inside. White sand was added to the top of the soil prior to application of the test compound.
Test compounds were formulated and sprayed at 50 and 10 ppm. After spraying of the formulated test compound, the test units were allowed to dry for 1 h before they were post-infested with ˜15-20 nymphs (18-to-21-day-old). A black, screened cap was placed on the top of each test unit, and the test units were held for 6 days in a growth chamber at 22-24° C. and 50-70% relative humidity. Each test unit was then visually assessed for insect mortality.

[6] = system: potato leafhopper (Empoasca fabae (Harris)); assay: Test D: control of potato leafhopper through contact and/or systemic means; conditions: 144 h, 50 ppm spray, 6 days, read-out: mortality
Description: as §1, §2
[…] White sand was added to the top of the soil, and one of the primary leaves was excised prior to application of the test compound.
Test compounds were formulated and sprayed at 250, 50 and 10 ppm. After spraying of the formulated test compound, the test units were allowed to dry for 1 hour before they were post-infested with 5 potato leafhoppers (18-to-21-day-old adults). A black, screened cap was placed on the top of the test unit, and the test units were held for 6 days in a growth chamber at 20° C. and 70% relative humidity. Each test unit was then visually assessed for insect mortality.

[7] = 50 ppm spray, 6 days, read-out: mortality
[8] = 50 ppm spray, 13 days, read-out: mortality

SMILES | mortality at 50 ppm [1] | mortality at 250 ppm [1] | mortality at 250 ppm [2] | mortality at 50 ppm [3] | mortality at 250 ppm [3] | control efficacy: plant damage (and/or 100% mortality) [4] | mortality at 50 ppm [5] | mortality at 50 ppm [6] | mortality at 10 ppm ([1]; 6 days, read-out: mortality) | mortality at 50 ppm [1, 7] | mortality at 50 ppm ([2]; 6 days, read-out: mortality) | mortality at 10 ppm ([3]; 10 ppm spray, 13 days, read-out: mortality) | mortality at 50 ppm [3, 8] | mortality at 10 ppm ([2]; 10 ppm spray, 6 days, read-out: mortality)
CCN1OC[C@@H](NC(=O)c2ccc(C3=NOC(c4cc(Cl)cc(Cl)c4)(C(F)(F)F)C3)c3ccncc23)C1=O (stereo partly shown) [Compound 1] | ≥ 80% | ≥ 80% | ≥ 80% | ≥ 50% | ≥ 50% | ≤ 30% | – | – | – | – | – | – | – | –
O=C(NC1CC1)c1ccc(C2=NOC(c3ccc(F)c(C(F)(F)F)c3)(C(F)(F)F)C2)c2ccncc12 (stereo not shown) [Compound 55, N-cyclopropyl-5-[5-[4-fluoro-3-(trifluoromethyl)phenyl]-4,5-dihydro-5-(trifluoromethyl)-3-isoxazolyl]-8-isoquinolinecarboxamide] | – | – | – | – | – | – | ≥ 80% | ≥ 80% | ≥ 80% | ≥ 80% | ≥ 80% | ≥ 50% | ≥ 50% | –
O=C(NCC1CC1)c1ccc(C2=NOC(c3ccc(F)c(C(F)(F)F)c3)(C(F)(F)F)C2)c2ccncc12 (stereo not shown) [Compound 58, N-(cyclopropylmethyl)-5-[5-[4-fluoro-3-(trifluoromethyl)phenyl]-4,5-dihydro-5-(trifluoromethyl)-3-isoxazolyl]-8-isoquinolinecarboxamide] | – | – | – | – | – | – | ≥ 80% | ≥ 80% | ≥ 80% | ≥ 80% | ≥ 80% | – | ≥ 50% | ≥ 80%
C#CCNC(=O)c1ccc(C2=NOC(c3ccc(F)c(C(F)(F)F)c3)(C(F)(F)F)C2)c2ccncc12 (stereo not shown) [Compound 74, 5-[5-[4-fluoro-3-(trifluoromethyl)phenyl]-4,5-dihydro-5-(trifluoromethyl)-3-isoxazolyl]-N-2-propyn-1-yl-8-isoquinolinecarboxamide] | – | – | – | – | – | – | ≥ 80% | ≥ 80% | – | ≥ 80% | ≥ 80% | – | ≥ 50% | –
